This is an account of results in US20150087613A1, “Inhibition of Opioid Antinociceptive Tolerance and Withdrawal in Nociceptive Pain Therapy” (Saint Louis University, priority 2013, published 2015).

For orientation: inhibition means how much of the control response was suppressed.

One assay deals with T1, hA3AR (Homo sapiens, UniProt P0DMS8).
T1 construct: expressed in transfected cells
T1 sequence (P0DMS8 1-318): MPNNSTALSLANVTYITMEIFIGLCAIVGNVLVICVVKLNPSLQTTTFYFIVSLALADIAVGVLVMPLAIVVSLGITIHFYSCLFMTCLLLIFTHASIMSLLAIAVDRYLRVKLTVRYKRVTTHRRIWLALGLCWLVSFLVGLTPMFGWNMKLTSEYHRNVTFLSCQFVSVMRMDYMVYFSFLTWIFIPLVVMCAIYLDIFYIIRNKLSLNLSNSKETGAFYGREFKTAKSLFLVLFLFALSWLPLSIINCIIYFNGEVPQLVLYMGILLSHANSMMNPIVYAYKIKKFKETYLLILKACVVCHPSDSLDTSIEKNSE
As to the kind of experiment: cAMP assay, inhibition of forskolin-stimulated cAMP in hA3AR-transfected CHO cells. Particulars: for Emax at 10 µM: CHO, read-out: % efficacy, A3. In kind it is cell-based. For orientation: cAMP levels reflect the balance of adenylyl cyclase and phosphodiesterase activity.

Assay [1] addresses T2, A1AR (Homo sapiens, UniProt P30542).
T2 construct: expressed in transfected cells
T2 sequence (P30542 1-326): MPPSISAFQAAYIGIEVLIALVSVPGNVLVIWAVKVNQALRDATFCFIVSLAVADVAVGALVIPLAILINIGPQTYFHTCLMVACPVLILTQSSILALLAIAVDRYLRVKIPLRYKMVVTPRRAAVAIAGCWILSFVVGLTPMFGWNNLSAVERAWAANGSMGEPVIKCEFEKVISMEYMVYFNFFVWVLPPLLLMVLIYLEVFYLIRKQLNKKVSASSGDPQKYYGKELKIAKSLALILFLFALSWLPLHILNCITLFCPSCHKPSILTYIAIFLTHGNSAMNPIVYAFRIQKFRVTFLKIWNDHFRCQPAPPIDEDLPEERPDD
Particulars: species h; inhibition of binding at 10 μM; tested in ref 26; cited from earlier work.

Assay [2] concerns the target T3, A2AAR (Homo sapiens, UniProt P29274).
T3 construct: expressed in transfected cells
Particulars: species h, tested in ref 26, cited from earlier work; for % inhibition A2A: inhibition of binding at 10 μM; for Ki: agonist radioligand 41, read-out: affinity (KV nM) A2A.

For assay [3], the target named is T4, A3AR (Homo sapiens, UniProt P0DMS8).
T4 construct: expressed in transfected cells
T4 sequence (P0DMS8 1-318): T1 sequence (P0DMS8 1-318)
Particulars: species h; agonist radioligand 42; tested in ref 26; read-out: affinity (KV nM) A3; cited from earlier work.

Assay [4] has as its system Male Sprague Dawley rats. Description: Rat morphine antinociceptive tolerance study (osmotic minipump, tail flick test). The assay is classed as in vivo.
Description: Minipumps were filled according to manufacturer's specifications. The use of the osmotic pump ensures a continuous subcutaneously delivery of morphine avoiding intermittent periods of withdrawal. […] The integrity of the pump delivery system was reexamined at the end of each experiment when the spinal cords are harvested.
(§1) Test substances or vehicle were given on day 0 through 6 after completion of the behavioral tests.
The test system of assay [5] is Male Sprague Dawley rats. Description: Acute antinociceptive interaction with acute morphine (tail flick). The assay is classed as in vivo, rat. The following applies: morphine 3 mg/kg i.p., at 30 min.
Description: as §1
Assay [6] addresses T5, A1AR (Mus musculus, UniProt Q60612).
T5 construct: expressed in transfected cells
T5 sequence (Q60612 1-326): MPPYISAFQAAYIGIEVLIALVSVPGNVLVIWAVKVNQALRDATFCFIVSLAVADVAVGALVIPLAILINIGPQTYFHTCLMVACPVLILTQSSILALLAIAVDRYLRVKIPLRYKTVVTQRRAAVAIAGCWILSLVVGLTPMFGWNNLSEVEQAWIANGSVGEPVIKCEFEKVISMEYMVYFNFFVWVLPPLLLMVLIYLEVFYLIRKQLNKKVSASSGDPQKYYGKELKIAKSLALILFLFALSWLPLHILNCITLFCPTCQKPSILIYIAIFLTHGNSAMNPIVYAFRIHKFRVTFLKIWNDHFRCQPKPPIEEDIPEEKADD
As to the kind of experiment: Radioligand binding, membranes of HEK293 cells stably expressing mA1AR. The following applies: for Ki: species m, n 3-4, read-out: affinity (KV nM) A1; for inhibition at 10 µM: read-out: % inhibition A1.

Assay [7] deals with T6, A2AAR (Mus musculus, UniProt Q60613).
T6 construct: expressed in transfected cells
As to the kind of experiment: Radioligand binding, membranes of HEK293 cells stably expressing mA2AAR. The following applies: read-out: % inhibition A2A.

Assay [8] deals with T7, A3AR (Mus musculus, UniProt Q61618).
T7 construct: expressed in transfected cells
T7 sequence (Q61618 1-319): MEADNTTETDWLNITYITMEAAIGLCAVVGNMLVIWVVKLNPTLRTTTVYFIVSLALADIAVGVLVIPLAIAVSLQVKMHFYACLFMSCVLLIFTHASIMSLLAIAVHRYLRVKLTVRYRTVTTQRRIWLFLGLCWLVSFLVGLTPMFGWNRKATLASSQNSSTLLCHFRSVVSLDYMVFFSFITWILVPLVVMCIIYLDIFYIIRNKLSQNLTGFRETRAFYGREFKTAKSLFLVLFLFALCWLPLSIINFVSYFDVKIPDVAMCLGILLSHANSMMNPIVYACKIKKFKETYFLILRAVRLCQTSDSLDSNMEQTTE
Description: Radioligand binding, membranes of HEK293 cells stably expressing mA3AR. The following applies: species m; n 3-4; read-out: affinity (KV nM) A3.

Assay [9] concerns the target T2, A1AR. As to the kind of experiment: Radioligand binding, membranes of CHO cells stably expressing hA1AR. Particulars: for inhibition at 10 µM: read-out: % inhibition A1.
The target in assay [10] is T3, A2AAR. As to the kind of experiment: Radioligand binding, membranes of HEK293 cells stably expressing hA2AAR. The following applies: read-out: % inhibition A2A.
The target in assay [11] is T4, A3AR. As to the kind of experiment: Radioligand binding, membranes of CHO cells stably expressing hA3AR. Particulars: species h; agonist radioligand 42; n 3-4; read-out: affinity (KV nM) A3.
In the next assay the target is T8, mA3AR (Mus musculus, UniProt Q61618).
T8 construct: expressed in transfected cells
T8 sequence (Q61618 1-319): T7 sequence (Q61618 1-319)
Description: cAMP assay, inhibition of forskolin-stimulated cAMP in mA3AR-transfected HEK cells. In kind it is cell-based. The following applies: HEK293; read-out: % efficacy, A3.

Structures are written as SMILES. Like-named read-outs stand apart in the source and are kept apart here.

T6 sequence (Q60613 whole entry): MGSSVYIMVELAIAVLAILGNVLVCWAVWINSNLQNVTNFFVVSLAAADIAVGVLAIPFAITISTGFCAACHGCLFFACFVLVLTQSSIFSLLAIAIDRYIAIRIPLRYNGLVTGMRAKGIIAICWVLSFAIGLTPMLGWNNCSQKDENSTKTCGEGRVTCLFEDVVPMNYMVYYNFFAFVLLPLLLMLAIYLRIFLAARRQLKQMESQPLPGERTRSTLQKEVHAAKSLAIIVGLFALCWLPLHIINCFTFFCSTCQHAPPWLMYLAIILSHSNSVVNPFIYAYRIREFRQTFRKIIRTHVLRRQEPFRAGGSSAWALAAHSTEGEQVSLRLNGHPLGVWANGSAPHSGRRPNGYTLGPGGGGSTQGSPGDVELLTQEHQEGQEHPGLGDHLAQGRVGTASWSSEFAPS
T3 sequence (P29274 whole entry): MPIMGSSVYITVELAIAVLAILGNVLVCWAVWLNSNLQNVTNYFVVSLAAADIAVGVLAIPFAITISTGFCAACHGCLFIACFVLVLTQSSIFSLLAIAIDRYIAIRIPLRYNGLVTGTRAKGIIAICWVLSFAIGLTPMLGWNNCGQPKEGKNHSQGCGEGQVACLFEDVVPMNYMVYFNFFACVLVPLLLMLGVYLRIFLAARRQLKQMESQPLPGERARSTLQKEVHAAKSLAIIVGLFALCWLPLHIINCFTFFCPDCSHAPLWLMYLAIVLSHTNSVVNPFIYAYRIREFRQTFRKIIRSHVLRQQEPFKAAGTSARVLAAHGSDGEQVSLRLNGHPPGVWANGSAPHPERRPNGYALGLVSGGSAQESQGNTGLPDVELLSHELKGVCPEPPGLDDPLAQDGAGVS

As to `CCNc1nc(C#Cc2ccccc2Cl)nc2c1ncn2C1C(O)C(O)C2CC21` (centres unmarked) [Compound 10], the Emax at 10 µM at hA3AR stood at 7 ± 5.2%. Also, the “% inhibition A1” value on A1AR [1] is given as “(25% ± 11%)”. Moreover, the “% inhibition A2A” value on A2AAR [2] is listed as “(17% ± 6%)”. For the same compound, on A3AR [3], the Ki is 5.8 ± 2.08 nM.

As to `CN1CC[C@]23c4c5ccc(O)c4O[C@H]2[C@@H](O)C=C[C@H]3[C@H]1C5` [morphine], the “analgesia at 2 hr following minipump implant” value in the assay on Male Sprague Dawley rats [4] (morphine 75 μg/μl/h s.c. by osmotic minipump) is listed as “approximately 100 % analgesia”. For the same compound, the “development of antinociceptive tolerance on chronic morphine infusion” value in the assay on Male Sprague Dawley rats [4] (s.c. infusion over 7 days (Veh-Mor, n=2) vs saline infusion, P<0.001, day 3 and 6) is “led to the development of antinociceptive tolerance”. The “antinociception after acute morphine alone” value with Male Sprague Dawley rats [5] worked out at 40±2 % antinociception.

For the compound `O[C@@H]1[C@H](O)[C@@H]2C[C@@H]2[C@H]1n1cnc2c(NCc3cccc(Cl)c3)nc(C#Cc3ccc(-c4ccccc4)cc3)nc21` [Compound 13], the Ki came out at 1110 ± 220 nM at A1AR [6] and 255 ± 77 nM at A3AR [8]. The inhibition at 10 µM at A2AAR [7] came out at 0%. Also, the Emax at 10 µM at hA3AR was 3.5 ± 3.2%. Also, on A1AR [1], the “% inhibition A1” value is “(48% ± 4%)”. In addition, the “% inhibition A2A” value on A2AAR [2] is given as “(12% ± 7%)”.

In the case of `OC1C(O)C(n2cnc3c(NCC(c4ccccc4)c4ccccc4)nc(C#Cc4ccccc4Cl)nc32)C2CC12` (centres unmarked) [Compound 15], on hA3AR, the Emax at 10 µM amounted to 2.6 ± 1.3%. In addition, the “% inhibition A1” value at A1AR [1] is “(26% ± 4%)”. For the same compound, the “% inhibition A2A” value on A2AAR [2] was “(22% ± 2%)”. Further, the Ki on A3AR [3] is 140 ± 30 nM.

Take `OC1C(O)C(n2cnc3c(NCc4cccc(Cl)c4)nc(C#Cc4ccccc4)nc32)C2CC12` (centres unmarked) [Compound 11]: the Emax at 10 µM at hA3AR was determined as 13.8 ± 5.1%. The Ki at A2AAR [2] is 680 ± 170 nM.

For the compound `O=S(=O)(O)c1ccc(CCNc2nc(C#Cc3ccccc3)nc3c2ncn3[C@H]2[C@H](O)[C@H](O)[C@@H]3C[C@@H]32)cc1` [Compound 16], the inhibition at 10 µM is 10% on A1AR [9], 15% on A2AAR [10], 18% at A1AR [6] and 1% on A2AAR [7]. For the same compound, the Ki amounted to 30.2 ± 4.3 nM at A3AR [11] and 3920 ± 1190 nM at A3AR [8]. At hA3AR, the Emax at 10 µM came out at 7.2%.

On to `O[C@@H]1[C@H](O)[C@@H]2C[C@@H]2[C@H]1n1cnc2c(NCCc3ccccc3)nc(C#Cc3ccccc3)nc21` [Compound 14], for which the Emax at 10 µM at hA3AR came to 4.1 ± 1.2%. The “% inhibition A1” value at A1AR [1] is recorded as “(30% ± 8%)”. The “% inhibition A2A” value on A2AAR [2] is on record as “(22% ± 5%)”.

With `OC1C(O)C(n2cnc3c(NCc4cccc(Cl)c4)nc(C#Cc4cccc(Cl)c4)nc32)C2CC12` (centres unmarked) [Compound 12], the Ki on A2AAR [2] is 1800 ± 310 nM.

In the case of `CNC(=O)[C@@]12C[C@@H]1[C@@H](n1cnc3c(NCc4cccc(Cl)c4)nc(C#Cc4ccc(S(=O)(=O)O)cc4)nc31)[C@H](O)[C@@H]2O` [Compound 6], the Ki at A1AR [9] (species h, agonist radioligand 40, n 3-4, read-out: affinity (KV nM) A1) is 383 ± 75 nM; on A3AR [11] it was 11.1 ± 1.6 nM; at A1AR [6], 35.1 ± 5.5 nM; at A3AR [8], 9.68 ± 0.15 nM. In addition, the results for the inhibition at 10 µM on A2AAR [10] and on A2AAR [7] were 23% and 14%, respectively. At hA3AR, the Emax at 10 µM turned out to be 96.8 ± 5.7%. Besides, the Emax at mA3AR is 95.7 ± 19.1%.

In the case of `CCNc1nc(C#Cc2ccccc2)nc2c1ncn2[C@H]1[C@H](O)[C@H](O)[C@@H]2C[C@@H]21` [Compound 9], the inhibition at 10 µM at A1AR [6] and at A2AAR [7] was 49% each time. The Ki at A3AR [8] came to 1480 ± 170 nM. For the same compound, the Emax at 10 µM at hA3AR came to 0.8 ± 5.2%. For the same compound, the “% inhibition A1” value on A1AR [1] is listed as “(36% ± 4%)”. Moreover, at A2AAR [2], the “% inhibition A2A” value is listed as “(42% ± 4%)”.

For the compound `CNC(=O)[C@@]12C[C@@H]1[C@@H](n1cnc3c(NCc4cccc(Cl)c4)nc(C#Cc4ccccc4)nc31)[C@H](O)[C@@H]2O` [Compound 5], the results for the inhibition at 10 µM at A1AR [6] and on A2AAR [7] were 50% and 2%, respectively. In addition, the Ki on A3AR [8] was 1.23 ± 0.14 nM. For the same compound, the “% efficacy, A3” value at hA3AR (species h, percentage of maximal effect of 5′-N-ethylcarboxamidoadenosine 43, each at 10 μM, mean ± SEM) worked out at 101 ± 5.9%. Further, at A1AR [1], the “% inhibition A1” value is recorded as “(20% ± 3%)”.

Turning to `CNC(=O)[C@@]12C[C@@H]1[C@@H](n1cnc3c(NCCc4ccccc4)nc(C#Cc4ccccc4)nc31)[C@H](O)[C@@H]2O` [Compound 17], the inhibition at 10 µM on A1AR [9] was determined as 11%; on A2AAR [10], 32%; at A1AR [6], 25%; on A2AAR [7], 1%. In addition, the Ki at A3AR [11] was determined as 1.23 ± 0.57 nM; on A3AR [8] it was 8.75 ± 2.12 nM. Further, the Emax at 10 µM on hA3AR turned out to be 105 ± 9.8%. Further, the Emax at mA3AR stood at 115 ± 14.6%.

For the compound `CNc1nc(C#Cc2ccccc2)nc2c1ncn2[C@H]1[C@H](O)[C@H](O)[C@@H]2C[C@@H]21` [Compound 8], the Ki on A1AR [6] is 3800 ± 780 nM; on A3AR [8], 1530 ± 240 nM. For the same compound, the inhibition at 10 µM on A2AAR [7] stood at 8%. Besides, at hA3AR, the Emax at 10 µM came out at 12.6 ± 4%. Also, the “% inhibition A1” value on A1AR [1] was “(18% ± 1%)”. Further, the “% inhibition A2A” value at A2AAR [2] is “(18% ± 3%)”.

In the case of `CNC(=O)[C@@]12C[C@@H]1[C@@H](n1cnc3c(NCc4cccc(Cl)c4)nc(C#Cc4cccc(S(=O)(=O)O)c4)nc31)[C@H](O)[C@@H]2O` [Compound 7], the inhibition at 10 µM at A1AR [9] is 16%; at A2AAR [10], 7%; on A1AR [6] it was 15%; on A2AAR [7], 1%. For the same compound, the Ki amounted to 1.9 ± 0.03 nM at A3AR [11] and 11.3 ± 1.9 nM on A3AR [8]. Also, the Emax at 10 µM on hA3AR was 98.2 ± 6.7%. Besides, the Emax on mA3AR worked out at 89.3 ± 7.1%.
